{"source": "paper PMC2798733", "about": "(Bioorganic & medicinal chemistry, 2008)", "key": {"rat TRPV1 [1]": {"biological_target": "T1, rat TRPV1 (Rattus norvegicus, UniProt O35433)", "T1 sequence (O35433 whole entry)": "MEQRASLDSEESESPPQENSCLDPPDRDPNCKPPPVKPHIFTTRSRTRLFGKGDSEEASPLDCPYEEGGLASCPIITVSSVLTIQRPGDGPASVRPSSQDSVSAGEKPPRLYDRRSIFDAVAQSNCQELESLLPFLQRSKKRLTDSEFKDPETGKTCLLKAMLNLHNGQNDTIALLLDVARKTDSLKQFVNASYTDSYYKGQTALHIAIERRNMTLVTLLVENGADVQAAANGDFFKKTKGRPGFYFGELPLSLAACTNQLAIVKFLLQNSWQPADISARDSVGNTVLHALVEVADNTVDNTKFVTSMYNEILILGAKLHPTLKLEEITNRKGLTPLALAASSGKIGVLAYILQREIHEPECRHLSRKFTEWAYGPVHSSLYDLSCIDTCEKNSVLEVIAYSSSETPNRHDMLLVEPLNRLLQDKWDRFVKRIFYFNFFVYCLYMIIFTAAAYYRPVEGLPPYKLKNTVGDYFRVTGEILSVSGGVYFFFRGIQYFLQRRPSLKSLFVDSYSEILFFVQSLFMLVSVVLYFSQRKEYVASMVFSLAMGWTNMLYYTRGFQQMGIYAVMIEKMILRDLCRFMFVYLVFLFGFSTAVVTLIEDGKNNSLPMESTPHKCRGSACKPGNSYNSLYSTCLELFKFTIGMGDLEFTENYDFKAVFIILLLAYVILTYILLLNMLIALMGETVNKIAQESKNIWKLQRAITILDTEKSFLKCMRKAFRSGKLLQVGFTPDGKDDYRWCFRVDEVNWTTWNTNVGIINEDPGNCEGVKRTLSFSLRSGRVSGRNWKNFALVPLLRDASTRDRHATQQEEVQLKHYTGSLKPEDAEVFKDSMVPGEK", "experiment": "biochemical", "type": "binding"}, "rat TRPV1 [2]": {"biological_target": "T1, rat TRPV1", "details": "for decrease in agonism on replacing or removing the 3-methoxy group of compound 1: comparator not given"}, "[3]": {"test_system": "transient receptor potential vanilloid 1 (TRPV1) channel", "details": "cited from earlier work"}, "TRPV1": {"test_system": "TRPV1", "details": "cited from earlier work"}, "[4]": {"details": "cited from earlier work"}}}
{"smiles": "C=C(C)[C@@]12C[C@@H](C)[C@@]34OC(Cc5ccccc5)(O[C@@H]1[C@@H]3C=C(COC(=O)Cc1ccc(NS(C)(=O)=O)c(OC)c1)C[C@]1(O)C(=O)C(C)=C[C@@H]41)O2", "note": "[Compound 1, 3-Methoxy-4-(methylsulfonylamino) analogue]", "values": [{"measurement": "reduction in binding affinity compared to RTX", "setting": "rat TRPV1 [1]", "result": 5, "unit": "fold"}, {"measurement": "enhancement of functional activity (agonism) compared to RTX", "setting": "rat TRPV1 [2]", "result": 2.5, "unit": "fold"}]}
{"smiles": "C=C(C)[C@@]12C[C@@H](C)[C@@]34OC(Cc5ccccc5)(O[C@@H]1[C@@H]3C=C(COC(=O)Cc1ccc(NS(C)(=O)=O)c(F)c1)C[C@]1(O)C(=O)C(C)=C[C@@H]41)O2", "note": "[Compound 2, 3-Fluoro-4-(methylsulfonylamino) analogue]", "values": [{"measurement": "decrease in agonism on replacing or removing the 3-methoxy group of compound 1", "setting": "rat TRPV1 [2]", "result": 9, "unit": "fold"}]}
{"smiles": "C=C(C)[C@@]12C[C@@H](C)[C@@]34OC(Cc5ccccc5)(O[C@@H]1[C@@H]3C=C(COC(=O)Cc1ccc(NS(C)(=O)=O)cc1)C[C@]1(O)C(=O)C(C)=C[C@@H]41)O2", "note": "[Compound 3, 4-(Methylsulfonylamino) analogue]", "values": [{"measurement": "decrease in agonism on replacing or removing the 3-methoxy group of compound 1", "setting": "rat TRPV1 [2]", "result": 7, "unit": "fold"}]}
{"smiles": "C=C(C)[C@@]12C[C@@H](C)[C@@]34OC(Cc5ccccc5)(O[C@@H]1[C@@H]3C=C(COC(=O)Cc1ccccc1F)C[C@]1(O)C(=O)C(C)=C[C@@H]41)O2", "note": "[Compound 4, 2-Fluoro analogue]", "values": [{"measurement": "Ki", "setting": "rat TRPV1 [1]", "result": 0.73, "unit": "nM"}]}
{"smiles": "C=C(C)[C@@]12C[C@@H](C)[C@@]34OC(Cc5ccccc5)(O[C@@H]1[C@@H]3C=C(COC(=O)Cc1ccc(F)cc1F)C[C@]1(O)C(=O)C(C)=C[C@@H]41)O2", "note": "[Compound 8, 2,4-Difluoro analogue]", "values": [{"measurement": "relative agonism compared to RTX", "setting": "rat TRPV1 [2]; compared to RTX", "result": 0.15}]}
{"smiles": "C=C(C)[C@@]12C[C@@H](C)[C@@]34OC(Cc5ccccc5)(O[C@@H]1[C@@H]3C=C(COC(=O)Cc1cc(F)ccc1F)C[C@]1(O)C(=O)C(C)=C[C@@H]41)O2", "note": "[Compound 9, 2,5-Difluoro analogue]", "values": [{"measurement": "relative affinity compared to RTX", "setting": "rat TRPV1 [1]; compared to RTX", "result": 0.1}]}
{"smiles": "C=C(C)[C@@]12C[C@@H](C)[C@@]34OC(Cc5ccccc5)(O[C@@H]1[C@@H]3C=C(CNC(=O)Cc1ccc(NS(C)(=O)=O)cc1)C[C@]1(O)C(=O)C(C)=C[C@@H]41)O2", "note": "[Compound 14, Amide analogue]", "values": [{"measurement": "drop in binding, amide versus ester compound 3", "setting": "rat TRPV1 [1]; compared to compound 3", "result": 50, "unit": "fold"}, {"measurement": "drop in agonism, amide versus ester compound 3", "setting": "rat TRPV1 [2]; compared to compound 3", "result": 210, "unit": "fold"}]}
{"smiles": "C=C(C)[C@]12C[C@@H](C)[C@@]34O[C@](Cc5ccccc5)(O[C@@H]1[C@@H]3C=C(COC(=O)Cc1ccc(O)c(OC)c1)C[C@]1(O)C(=O)C(C)=C[C@@H]41)O2", "note": "[RTX, Resiniferatoxin]", "values": [{"measurement": "greater potency than the prototypic agonist capsaicin", "setting": "[3]", "result": "10^3- to 10^4 fold"}]}
{"smiles": "C=C(C)[C@]12C[C@@H](C)[C@@]34O[C@](Cc5ccccc5)(O[C@@H]1[C@@H]3C=C(COC(=O)Cc1ccc(O)cc1)C[C@]1(O)C(=O)C(C)=C[C@@H]41)O2", "note": "[tinyatoxin]", "values": [{"measurement": "decrease in binding potency compared to RTX", "setting": "TRPV1", "result": 3, "unit": "fold"}, {"measurement": "loss of biological potency compared to RTX", "setting": "[4]", "result": 6, "unit": "fold"}]}
